Laboratory results as given in the supplement of paper PMC10307832.

How the values were obtained:
Experiment in all cases: relative viability (nuclei count vs DMSO), 5 days (fraction); higher = more cells survive
[1] = compound: CC1=NN=C(O1)C2=NN=C(C=C2)N3CCC(CC3)OC4=C(C=CC(=C4)F)Cl + Nc1ncn([C@H]2C[C@H](O)[C@@H](CO)O2)c(=O)n1 [Decitabine] (partner 2 µM)
Procedure, shortened: (§1)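 Five library-drug doses in √10 steps were combined with a fixed anchor-drug dose, or a single drug was given alone, by pin tool to lung cancer cell lines in 1536-well plates the day after seeding. Nuclei were stained and counted after 5 days. Relative viability is the nuclei count in treated wells over that in vehicle wells, taken as the median of duplicate plates.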

[2] = compound: CC1=NN=C(O1)C2=NN=C(C=C2)N3CCC(CC3)OC4=C(C=CC(=C4)F)Cl + CC(=O)c1c(C)c2cnc(Nc3ccc(N4CCNCC4)cn3)nc2n(C2CCCC2)c1=O [Palbociclib] (partner 0.5 µM)
Procedure, shortened: as §1

[3] = compound: CC(C)C[C@@H](C(=O)N[C@H](C(=O)OC1CCCC1)c1ccccc1)[C@H](O)C(=O)NO [Tosedostat] + C[C@]1(O)C[C@@H](c2nc(-c3ccc4ccc(-c5ccccc5)nc4c3)c3c(N)nccn32)C1 [Linsitinib] (partner 1 µM)
Procedure, shortened: as §1

[4] = compound: CC(C)C[C@@H](C(=O)N[C@H](C(=O)OC1CCCC1)c1ccccc1)[C@H](O)C(=O)NO [Tosedostat] + C[C@@H](Oc1cc(-c2cnn(C3CCNCC3)c2)cnc1N)c1c(Cl)ccc(F)c1Cl [Crizotinib] (partner 1 µM)
Procedure, shortened: as §1

Cell Line: NCI-H3122
- relative viability ([1]; first compound 0.253 µM): 0.376
- relative viability ([1]; first compound 0.8 µM): 0.31
- relative viability ([1]; first compound 2.53 µM): 0.412
- relative viability ([1]; first compound 8 µM): 0.281
- relative viability ([2]; first compound 0.253 µM): 0.191
- relative viability ([2]; first compound 0.8 µM): 0.201
- relative viability ([2]; first compound 2.53 µM): 0.183
- relative viability ([2]; first compound 8 µM): 0.221
- relative viability ([3]; first compound 0.02 µM): 0.993
- relative viability ([3]; first compound 0.06325 µM): 1
- relative viability ([3]; first compound 0.2 µM): 1.01
- relative viability ([3]; first compound 0.6325 µM): 1.02
- relative viability ([3]; first compound 2 µM): 1.04
- relative viability ([4]; first compound 0.02 µM): 0.292
- relative viability ([4]; first compound 0.06325 µM): 0.274
- relative viability ([4]; first compound 0.2 µM): 0.277
- relative viability ([4]; first compound 0.6325 µM): 0.254
- relative viability ([4]; first compound 2 µM): 0.234

Cell Line: PC-3 [JPC-3]
- relative viability ([1]; first compound 0.253 µM): 0.774
- relative viability ([1]; first compound 0.8 µM): 0.747
- relative viability ([1]; first compound 2.53 µM): 0.801
- relative viability ([1]; first compound 8 µM): 0.732
- relative viability ([2]; first compound 0.253 µM): 0.507
- relative viability ([2]; first compound 0.8 µM): 0.538
- relative viability ([2]; first compound 2.53 µM): 0.537
- relative viability ([2]; first compound 8 µM): 0.551
- relative viability ([3]; first compound 0.02 µM): 1.03
- relative viability ([3]; first compound 0.06325 µM): 1
- relative viability ([3]; first compound 0.2 µM): 1
- relative viability ([3]; first compound 0.6325 µM): 0.946
- relative viability ([3]; first compound 2 µM): 0.653
- relative viability ([4]; first compound 0.02 µM): 1
- relative viability ([4]; first compound 0.06325 µM): 0.885
- relative viability ([4]; first compound 0.2 µM): 0.998
- relative viability ([4]; first compound 0.6325 µM): 0.942
- relative viability ([4]; first compound 2 µM): 0.665

Cell Line: PC-14
- relative viability ([1]; first compound 0.253 µM): 0.19
- relative viability ([1]; first compound 0.8 µM): 0.226
- relative viability ([1]; first compound 2.53 µM): 0.177
- relative viability ([1]; first compound 8 µM): 0.23
- relative viability ([2]; first compound 0.253 µM): 0.503
- relative viability ([2]; first compound 0.8 µM): 0.444
- relative viability ([2]; first compound 2.53 µM): 0.449
- relative viability ([2]; first compound 8 µM): 0.44
- relative viability ([3]; first compound 0.02 µM): 0.97
- relative viability ([3]; first compound 0.06325 µM): 0.973
- relative viability ([3]; first compound 0.2 µM): 0.982
- relative viability ([3]; first compound 0.6325 µM): 0.915
- relative viability ([3]; first compound 2 µM): 0.918
- relative viability ([4]; first compound 0.02 µM): 0.843
- relative viability ([4]; first compound 0.06325 µM): 0.805
- relative viability ([4]; first compound 0.2 µM): 0.893
- relative viability ([4]; first compound 0.6325 µM): 0.842
- relative viability ([4]; first compound 2 µM): 0.92

Cell Line: RERF-LC-KJ
- relative viability ([1]; first compound 0.253 µM): 0.574
- relative viability ([1]; first compound 0.8 µM): 0.561
- relative viability ([1]; first compound 2.53 µM): 0.52
- relative viability ([1]; first compound 8 µM): 0.521
- relative viability ([2]; first compound 0.253 µM): 0.617
- relative viability ([2]; first compound 0.8 µM): 0.667
- relative viability ([2]; first compound 2.53 µM): 0.633
- relative viability ([2]; first compound 8 µM): 0.688
- relative viability ([3]; first compound 0.02 µM): 0.933
- relative viability ([3]; first compound 0.06325 µM): 0.875
- relative viability ([3]; first compound 0.2 µM): 0.854
- relative viability ([3]; first compound 0.6325 µM): 0.839
- relative viability ([3]; first compound 2 µM): 0.795
- relative viability ([4]; first compound 0.02 µM): 0.859
- relative viability ([4]; first compound 0.06325 µM): 0.887
- relative viability ([4]; first compound 0.2 µM): 0.764
- relative viability ([4]; first compound 0.6325 µM): 0.686
- relative viability ([4]; first compound 2 µM): 0.78

Cell Line: SK-LU-1
- relative viability ([1]; first compound 0.253 µM): 0.667
- relative viability ([1]; first compound 0.8 µM): 0.517
- relative viability ([1]; first compound 2.53 µM): 0.595
- relative viability ([1]; first compound 8 µM): 0.557
- relative viability ([2]; first compound 0.253 µM): 0.428
- relative viability ([2]; first compound 0.8 µM): 0.334
- relative viability ([2]; first compound 2.53 µM): 0.33
- relative viability ([2]; first compound 8 µM): 0.47
- relative viability ([3]; first compound 0.02 µM): 1.1
- relative viability ([3]; first compound 0.06325 µM): 1.07
- relative viability ([3]; first compound 0.2 µM): 0.9
- relative viability ([3]; first compound 0.6325 µM): 0.855
- relative viability ([3]; first compound 2 µM): 0.906
- relative viability ([4]; first compound 0.02 µM): 0.898
- relative viability ([4]; first compound 0.06325 µM): 0.775
- relative viability ([4]; first compound 0.2 µM): 0.731
- relative viability ([4]; first compound 0.6325 µM): 0.693
- relative viability ([4]; first compound 2 µM): 0.871

Cell Line: SK-MES-1
- relative viability ([1]; first compound 0.253 µM): 0.369
- relative viability ([1]; first compound 0.8 µM): 0.388
- relative viability ([1]; first compound 2.53 µM): 0.356
- relative viability ([1]; first compound 8 µM): 0.326
- relative viability ([2]; first compound 0.253 µM): 0.28
- relative viability ([2]; first compound 0.8 µM): 0.355
- relative viability ([2]; first compound 2.53 µM): 0.341
- relative viability ([2]; first compound 8 µM): 0.352
- relative viability ([3]; first compound 0.02 µM): 1.2
- relative viability ([3]; first compound 0.06325 µM): 1.05
- relative viability ([3]; first compound 0.2 µM): 1.06
- relative viability ([3]; first compound 0.6325 µM): 1.01
- relative viability ([3]; first compound 2 µM): 0.983
- relative viability ([4]; first compound 0.02 µM): 1.06
- relative viability ([4]; first compound 0.06325 µM): 0.988
- relative viability ([4]; first compound 0.2 µM): 0.983
- relative viability ([4]; first compound 0.6325 µM): 0.909
- relative viability ([4]; first compound 2 µM): 0.856

Cell Line: SW 1573
- relative viability ([1]; first compound 0.253 µM): 0.517
- relative viability ([1]; first compound 0.8 µM): 0.471
- relative viability ([1]; first compound 2.53 µM): 0.482
- relative viability ([1]; first compound 8 µM): 0.378
- relative viability ([2]; first compound 0.253 µM): 0.314
- relative viability ([2]; first compound 0.8 µM): 0.372
- relative viability ([2]; first compound 2.53 µM): 0.255
- relative viability ([2]; first compound 8 µM): 0.262
- relative viability ([3]; first compound 0.02 µM): 0.828
- relative viability ([3]; first compound 0.06325 µM): 0.973
- relative viability ([3]; first compound 0.2 µM): 0.826
- relative viability ([3]; first compound 0.6325 µM): 0.841
- relative viability ([3]; first compound 2 µM): 0.551
- relative viability ([4]; first compound 0.02 µM): 0.711
- relative viability ([4]; first compound 0.06325 µM): 0.868
- relative viability ([4]; first compound 0.2 µM): 0.637
- relative viability ([4]; first compound 0.6325 µM): 0.648
- relative viability ([4]; first compound 2 µM): 0.713
